What was measured:
ALK = target: T1, ALK (Homo sapiens, UniProt Q9UM73); test: ALK tyrosine kinase inhibition (GST-ALK filter binding assay); format: biochemical; conditions: for IC50: read-out: IC50 Range Class, inhibition of ALK
T1 construct: using the recombinant kinase domain of the ALK in analogy to the VEGF-R kinase assay
Procedure: See Wood et al., Cancer Res, Vol. 60, No. 8, pp. 2178-2189 (2000). In vitro enzyme assays using GST-ALK protein tyrosine kinase are performed in 96-well plates as a filter binding assay in 20 mM tris-HCl, pH=7.5, 3 mM MgCl2, 10 mM MnCl2, 1 mM DTT, 0.1 μCi/assay (=30 μL) [γ-^33P]-ATP, 2 μM ATP, 3 μg/mL poly (Glu, Tyr 4:1) Poly-EY (Sigma P-0275), 1% DMSO, 25 ng ALK enzyme. Assays are incubated for 10 minutes at ambient temperature. Reactions are terminated by adding 50 μL of 125 mM EDTA, and the reaction mixture is transferred onto a MAIP Multiscreen plate (Millipore, Bedford, Mass., USA), previously wet with methanol, and re-hydrated for 5 minutes with H2O. Following washing (0.5% H3PO4), plates are counted in a liquid scintillation counter. IC50 values are calculated by linear regression analysis of the percentage inhibition. Compared with the control without inhibitor, the compounds of formula (I) inhibit the enzyme activity by 50% (IC50), e.g., in a concentration of from 0.001-0.5 μM, especially from […].

S6K1 = target: T2, S6K1 (Homo sapiens, UniProt P23443, T412E); test: S6K1 kinase inhibition (S6K1ΔCT/T412E, TR-FRET); format: biochemical; conditions: read-out: IC50 Range Class, inhibition of S6K1
T2 construct: His (N); made in house; host or cells: Sf9 insect cells (baculovirus, pFastBacHT A), co-infected with GST-PDK1 virus
Source text: The DNA fragment encoding S6K1ΔCT/T412E is subcloned to the baculovirus donor vector pFastBacHT A to generate a recombinant baculovirus that expresses S6K1ΔCT/T412E. Transfer vectors for S6K1ΔCT/T412E are transfected into the DH10Bac cell line (GIBCO). After selection of white colonies, they are used for viral DNA (bacmid) preparation. Sf9 cells (American Type Culture Collection) cells are then transfected with the viral DNA using Cellfectin reagent. Virus-containing media is collected from the transfected cell culture and is used for infection to increase its titer. For large-scale protein expression, Sf9 cells are co-infected with S6K1ΔCT/T412E and GST-PDK1 virus-containing media with MOI of 2.25 and 1, respectively. After 3 days, the cells expressing the recombinant enzyme are resuspended in the culture medium with a sterilized cell scraper and harvested by centrifugation. The cells are resuspended in 5 volumes of cell pellet of Extraction Buffer (50 mM MOPS pH 7.0, containing 300 mM NaCl, 0.05% Tween-20, 10 mM sodium pyrophosphate, 50 mM β-glycerophosphate, 0.2 mM cantharidic acid and 1× complete-EDTA protease inhibitor cocktail) and then disrupted with 15 strokes of a Dounce homogenizer followed by sonication on ice. The homogenate is centrifuged at 4° C. for 60 minutes at 48,000×g. The supernatant is clarified with a 5 μm filter and subjected to purification with TALON Superflow Resin (Clontech). First, 1 mL of TALON resin per 5 mL of the supernatant was equilibrated with the Extraction Buffer and resuspended in the supernatant followed by gentle agitation for 20 minutes at RT. After centrifugation at 700×g for 5 minutes, supernatant is removed. The resin is washed twice by adding 10 bed volumes of the Extraction Buffer, agitating for 10 minutes at RT, centrifugating at 700×g for 5 minutes, and discarding the supernatant. The resin is then resuspended with the same volume of the Extraction Buffer and transferred to an disposable chromatography column. The packed column is washed once with 10 bed volumes of the Extraction Buffer and additionally with the same volume of Wash Buffer (5 mM imidazole in the Extraction Buffer). Then, the His-tagged S6K1ΔCT/T412E is eluted with four bed volumes of Elution Buffer (150 mM imidazole in the Extraction Buffer).
Measure of enzyme activity: The kinase assay with purified S6K1ΔCT/T412E is performed with TR-FRET (Time-Resolved Fluorescene Resonance Energy Transfer) technology. First, ATP-dependent phosphorylation of the biotinylated substrate peptide corresponding to residues 229-242 of S6 ribosomal protein (Biot-AKRRRLSSLRASTS) is carried out for 1 hour at 37° C. in […] under humidified air. The kinase reaction mixture of the final volume of 9 μL contains 2.57 ng of purified S6K1ΔCT/T412E protein, 50 mM MOPS (pH 7.0), 0.1 mM EGTA, 0.01 mM Na3VO4, 0.05% Tween-20, 0.01% BSA, 1 mM DTT, 10 mM MgCl2, 3 μM ATP, 0.5 μM biotinylated substrate peptide, 1% of DMSO or the text compounds of the formula (I) at the required concentration in 1% DMSO. For measurement of background, 20 mM of EDTA is added to the reaction mixture. […] Phosphorylated peptide indicative of kinase activity is quantitated by exciting the sample at 330 nm and comparing donor emission at 615 nm and acceptor emission at 665 nm by 2101 EnVision HTS multilabel plate reader (Perkin Elmer). […]

T1 sequence (Q9UM73 1116-1392 limits assumed): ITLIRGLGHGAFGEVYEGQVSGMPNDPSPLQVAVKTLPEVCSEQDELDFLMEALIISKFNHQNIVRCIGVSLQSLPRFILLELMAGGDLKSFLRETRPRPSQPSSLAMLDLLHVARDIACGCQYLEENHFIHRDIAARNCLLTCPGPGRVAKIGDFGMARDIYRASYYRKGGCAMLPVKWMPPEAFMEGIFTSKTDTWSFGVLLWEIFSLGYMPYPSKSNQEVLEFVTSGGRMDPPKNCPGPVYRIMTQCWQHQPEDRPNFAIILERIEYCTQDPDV
T2 sequence (P23443 1-421 T412E): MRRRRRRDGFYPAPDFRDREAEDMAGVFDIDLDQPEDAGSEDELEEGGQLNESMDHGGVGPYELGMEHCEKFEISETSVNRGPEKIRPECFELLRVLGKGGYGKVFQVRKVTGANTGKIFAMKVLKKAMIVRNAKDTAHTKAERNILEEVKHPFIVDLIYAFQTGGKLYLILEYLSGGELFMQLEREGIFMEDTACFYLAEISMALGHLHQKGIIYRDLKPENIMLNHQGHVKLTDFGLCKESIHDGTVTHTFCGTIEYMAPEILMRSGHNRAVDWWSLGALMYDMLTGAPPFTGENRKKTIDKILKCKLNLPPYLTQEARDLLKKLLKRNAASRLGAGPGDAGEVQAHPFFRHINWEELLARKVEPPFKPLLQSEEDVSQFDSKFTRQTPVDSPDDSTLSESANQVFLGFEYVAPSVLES

Row | IC50 (ALK) [nM] | IC50 (S6K1) [nM] | IC50 Range Class, inhibition of ALK (ALK) | Structure (SMILES)
1 | ≤ 500 |  |  | NCCCc1ccc(-n2cnc3cnc4ccc(-c5ccc6[nH]ccc6c5)cc4c32)c(Cl)c1 [Example 48, 3-{3-Chloro-4-[8-(1H-indol-5-yl)-imidazo[4,5-c]quinolin-1-yl]-phenyl}-propylamine]
2 | ≤ 500 | ≤ 500 |  | NCCc1ccc(-n2cnc3cnc4ccc(-c5ccc6[nH]ccc6c5)cc4c32)c(Cl)c1 [Example 11, 2-{3-Chloro-4-[8-(1H-indol-5-yl)-imidazo[4,5-c]quinolin-1-yl]-phenyl}-ethylamine]
3 |  | ≤ 500 | B/A | NCCc1ccc(-n2cnc3cnc4ccc(-c5ccc6[nH]ccc6c5)cc4c32)cc1F [Example 18, 2-{2-Fluoro-4-[8-(1H-indol-5-yl)-imidazo[4,5-c]quinolin-1-yl]-phenyl}-ethylamine]

From patent US20080262021A1, “1H-Imidazoquinoline Derivatives as Prote In Kinase Inhibitors” (NOVARTIS AG, priority 2003, published 2008)
